Reference: patent US11242555B2, “Molecular sensors and uses thereof” (New York University, priority 2018, dated 2022)
“Also recorded” adds a separate entry of the source. Counter-ions that a name gives are not always drawn. Like-named read-outs stand apart in the source and are kept apart here. Starred links: 1 amine or outer side, 2 acyl side, 3 side chain; linkers in the order of their positions; H or OH if unused. Positions of bridges follow the written chain, without caps; N, C: chain ends. Non-standard residues stand in square brackets, D forms with d. Residues, ends and D or L forms follow the SMILES beside them. Chains are numbered I, II in the order given. Actinocin(9to1) = Cc1c2oc3c(C)ccc(C(=O)[*:1])c3nc-2c(C(=O)[*:2])c(N)c1=O; NMeV = CN[C@H](C(=O)O)C(C)C; Sar = CNCC(=O)O

Legend:
[1] = system: flexible molecular sensor (DNA); experiment: Flexible (tongs-shaped) molecular sensor in solution, groove binders and polypeptides (FRET ratio); type: binding; details: for FRET ratio as a function of compound concentration: flexible sensor in solution; for FRET ratio as a function of drug concentration, with Mg / FRET ratio as a function of drug concentration, absence of Mg: flexible sensor; for FRET ratio as a function of drug concentration, with Mg: 20 mM MgCl added to solution; for FRET ratio as a function of drug concentration, absence of Mg: no Mg
[2] = system: nuclei of cells in culture; experiment: Flexible sensor FRET ratio within nuclei of cells treated with chromatin-disrupting drugs (macromolecular crowding); type: cell-based; details: flexible sensor within nuclei of cells in culture medium
Protocol: The flexible molecular sensors reports on the local macromolecular crowding within living cells in culture (FIG. 5). The sensor was introduced into cells by liposome transfection. After a short incubation period of 45 minutes, the cells plated on an imaging well were washed and imaged using scanning laser confocal microscopy. The cells were then imaged by exciting the donor (Cy3) and imaging the fluorescence of Cy3 and Cy5 (acceptor) in the appropriate spectral ranges (top two images). The false-colored images can be merged therefore producing another false color image where green (FIG. 5—top left) indicates a small FRET ratio and red (FIG. 5—top right) a large FRET ratio an intermediate values being yellow/orange (FIG. 5—bottom left). A quantitative measurement of the FRET ratio is represented as a gray scale image (FIG. 5—bottom right) where each pixel is in the ratio of the intensity in the Cy5 channel divided by that in the Cy3 channel. Local variations indicate local differences in the degree of macromolecular crowding.
Drugs that disrupt chromatin compaction result in a more crowded nucleus (FIG. 11). The FRET ratio was measured within the nuclei of cells in culture medium in the absence and presence of drugs that disrupt chromatin structure. Three drugs that disrupt chromatin in different ways were used: trichostatin A (TSA) and tubacin both of which inhibit histone deacetylases, and etoposide which forms a complex with DNA and topisomerase II resulting in the accumulation of DNA breaks.

DNA within living cells = experiment: Linear probe in living cells transfected with the oligo probe (confocal FRET ratio); type: cell-based; details: for FRET ratio (Cy5:Cy3) in cells in presence of intercalating drug vs no drug: cells transfected with linear probe, drug in culture medium
Protocol: Cells transfected with the oligo probe were imaged by exciting the donor (Cy3) and imaging the fluorescence of Cy3 (A) and Cy5 (acceptor) (B) in the appropriate spectral ranges using a confocal microscope. (C) The false-colored images can be merged, therefore producing a false color image where orange indicates a large FRET ratio. […] (G) The drop in the FRET ratio is measured by calculating the ratio of the Cy5 signal to that of Cy3 within the nuclei of cells in presence of the three intercalating compounds.
The molecular sensors were used in cell culture according to the following: 1) the desired cells were prepared in glass-bottom culture dishes or wells to a confluence lower than 70%. 2) Two hours before imaging, a desired transfection protocol (e.g., liposome transfection), and the like) is used with either sensor depending on the desired mode of DNA binding to be investigated. 3) After the transfection period, the culture was washed from excess sensors. 4) The culture disk was transferred to the confocal microscope for imaging. […] 6) If using filter cubes use the appropriate cubes to image donor fluorescence in one channel and acceptor fluorescence in the other. If using spectral imaging set the imaging wavelength windows for the two fluorophores. 7) Cells were identified that have been successfully transfected as indicated by fluorescence throughout the cell. 8) Images were acquired in both channels. 9) Software to calculate the ratio of acceptor/donor fluorescence (the FRET ratio) for the desired regions within the imaged cells was used. 10) The desired drug to be tested was added. 11) The cells were imaged again and the FRET ratio was calculated as a function of the desired variable: e.g. time, drug concentration, region within the cell, etc. A change in the FRET ratio indicates DNA drug binding.
Using laser scanning confocal microscopy the cells are imaged by exciting the donor (Cy3) and imaging the fluorescence of Cy3 and Cy5 (acceptor) in the appropriate spectral ranges (images A, B, D, E). The false-colored images can be merged therefore producing a false color image where green indicates a small FRET ratio and red a large FRET ratio and intermediate values being yellow/orange (images C and F). […] The FRET ratio can be measured from the ratio of Cy5:Cy3 intensities.
Cells were transfected with the sensor and imaged in culture medium as described in FIG. 17. […] The average FRET ratio measured as Cy5:Cy3 intensities in the images is plotted as a function of time in the lower right panel.

[3] = system: double-stranded oligo probe (DNA); experiment: Linear oligo probe titration with intercalating drug in solution (FRET ratio, Hill plot binding constant); details: for binding constant: Hill plot fit of fraction of intercalated bases vs drug concentration, all binding sites assumed occupied at saturation
[4] = system: double-stranded oligo probe (DNA); experiment: High-throughput screen of a compound library with the linear oligo probe (FRET ratio, 384 well plate); type: binding
Protocol: A library of compounds was mixed with the oligo probe in 384 well plate format. (A) The fluorescence spectra of the probe were recorded on a plate reader as in FIG. 21 and the FRET ratio (Cy5/Cy3 intensity) was calculated. […] (B) A library consisting of 1600 compounds from FDA and internationally approved drugs was screened to detect potential intercalators that can be drug repositioning targets.
The molecular sensors were used in vitro according to the following: 1) The sensors were diluted in a NaCl solution (e.g., in a 50-100 mM NaCl solution) and 0.2% BSA solution to a concentration of 1 μM. This can be adjusted depending on the sensitivity of the fluorescence measurement device. 2) The fluorescence spectrum was measured using a fluorescence spectrophotometer, a plate reader, or any other ad-hoc means. […] 3) The molecular species was added to be characterized for DNA binding properties or to be tested for intercalating or groove binding ability. The appropriate sensor is used (e.g., a linear or flexible molecular sensor). The fluorescence spectrum was measured again using the same methods and settings. 4) The FRET ratio was compared for both the sensor alone and sensor plus tested molecule. The FRET ratio is calculated by dividing the peak intensity of the acceptor fluorescence by that of the donor fluorescence.

[5] = linear oligo probe, 384 well plate, Cy5/Cy3 intensity, library peak ˜1.1, a small ratio indicates intercalation

Cn1cc(NC(=O)c2cc(NC(=O)CN=C(N)N)cn2C)cc1C(=O)NCCC(=N)N [Netrospin]
FRET ratio as a function of compound concentration [1]: concentration-dependent increase of the FRET ratio

COc1cc([C@@H]2c3cc4c(cc3[C@@H](O[C@@H]3O[C@@H]5CO[C@@H](C)O[C@H]5[C@H](O)[C@H]3O)[C@H]3COC(=O)[C@H]23)OCO4)cc(OC)c1O [etoposide]
FRET ratio in nuclei of treated cells compared to untreated cells [2]: larger FRET ratio

c1cnc2c(c1)ccc1cccnc12 [Phenanthroline]
FRET ratio (Cy5:Cy3) in cells in presence of intercalating drug vs no drug (DNA within living cells): clear difference in FRED ratio | binding constant [3]: 710 M⁻¹

Cc1c2oc3c(C)ccc(C(=O)N[C@@H]4C(=O)N[C@H](C(C)C)C(=O)N5CCC[C@H]5C(=O)N(C)CC(=O)N(C)[C@@H](C(C)C)C(=O)O[C@@H]4C)c3nc-2c(C(=O)N[C@@H]2C(=O)N[C@H](C(C)C)C(=O)N3CCC[C@H]3C(=O)N(C)CC(=O)N(C)[C@@H](C(C)C)C(=O)O[C@@H]2C)c(N)c1=O [DACTINOMYCIN] (I: T[dV]P[Sar][NMeV] / II: T[dV]P[Sar][NMeV]; ester I:1-I:C, II:1-II:C; linker I:N-II:N via Actinocin(9to1))
FRET ratio (Cy5:Cy3) in cells in presence of intercalating drug vs no drug (DNA within living cells): drop if the FRET efficiency upon intercalation within the cell | FRET ratio (Cy5:Cy3) in cells in presence of intercalating drug vs no drug (DNA within living cells; listed as Actinomycin D): decrease in the FRET ratio; also recorded: clear difference in FRED ratio | time-course of drug entry into the cell (drop in FRET ratio within the nucleus) (DNA within living cells; time-lapse after drug was introduced into the culture medium): from orange (high FRET) to green (low FRET) | binding constant [3]: 2e+06 M⁻¹ | FRET ratio as a function of intercalator concentration ([3]; linear probe in solution, excited at 500 nm, peak acceptor/peak donor): decreases | FRET ratio [4]: 0.4765

COC1C(O)CC(OC2CC(Oc3cc4cc5c(c(O)c4c(O)c3C)C(=O)[C@@H](OC3CC(OC4CC(OC6CC(C)(O)C(OC(C)=O)C(C)O6)C(O)C(C)O4)C(O)C(C)O3)[C@H]([C@H](OC)C(=O)[C@@H](O)[C@@H](C)O)C5)OC(C)C2OC(C)=O)OC1C (some centres unmarked) [Chromomycin]
FRET ratio as a function of drug concentration, with Mg [1]: FRET ratio increases as a function of drug concentration | FRET ratio as a function of drug concentration, absence of Mg [1]: no change in the FRET ratio

CS[C@H]1SC[C@H]2C(=O)N(C)[C@@H](C(C)C)C(=O)OC[C@@H](NC(=O)c3cnc4ccccc4n3)C(=O)N[C@@H](C)C(=O)N(C)[C@@H]1C(=O)N(C)[C@@H](C(C)C)C(=O)OC[C@@H](NC(=O)c1cnc3ccccc3n1)C(=O)N[C@@H](C)C(=O)N2C [Echinomycin]
FRET ratio (Cy5:Cy3) in cells in presence of intercalating drug vs no drug (DNA within living cells): clear difference in FRED ratio | binding constant [3]: 400000 M⁻¹

N=C(N)c1ccc(OCCCCCOc2ccc(C(=N)N)cc2)cc1 [Pentamidine]
FRET ratio as a function of compound concentration [1]: concentration-dependent increase of the FRET ratio

CCN(CC)CCCC(C)Nc1c2ccc(Cl)cc2nc2ccc(OC)cc12 (centres unmarked) [QUINACRINE HYDROCHLORIDE]
FRET ratio [4, 5]: 0.2743

N=C(N)NC(=O)c1nc(Cl)c(N)nc1N [AMILORIDE HYDROCHLORIDE]
FRET ratio [4, 5]: 0.7057

Mitramycin
FRET ratio as a function of drug concentration, with Mg [1]: FRET ratio increases as a function of drug concentration | FRET ratio as a function of drug concentration, absence of Mg [1]: no change in the FRET ratio

COc1c2occc2c(OC)c2c(=O)cc(C)oc12 [KHELLIN]
FRET ratio [4, 5]: 0.7494

CC(C)NCC(O)COc1cccc2ccccc12.Cl (racemic) [PROPRANOLOL HYDROCHLORIDE (+/−)]
FRET ratio [4, 5]: 0.9132

CCN(CC)CCOc1ccc2c(c1)C(=O)c1cc(OCCN(CC)CC)ccc1-2 [TILORONE]
FRET ratio [4, 5]: 0.443

CC(=O)Oc1cc2c(cc1OC(C)=O)[C@@H]1c3ccc(OC(C)=O)c(OC(C)=O)c3OC[C@]1(OC(C)=O)C2 [HAEMATOXYLIN PENTAACETATE]
FRET ratio [4]: 0.6134

O=C(CCCCCCC(=O)Nc1ccc([C@H]2O[C@@H](CSc3nc(-c4ccccc4)c(-c4ccccc4)o3)C[C@@H](c3ccc(CO)cc3)O2)cc1)NO [tubacin]
FRET ratio in nuclei of treated cells compared to untreated cells [2]: larger FRET ratio

CCN(CC)Cc1cc(Nc2ccnc3cc(Cl)ccc23)ccc1O [AMODIAQUINE DIHYDROCHLORIDE]
FRET ratio [4, 5]: 0.8333

COc1cc(OC)c2c(=O)cc(-c3ccccc3)oc2c1 [CHRYSIN DIMETHYL ETHER]
FRET ratio [4, 5]: 0.8385

Cc1cc(N)c2ccccc2[n+]1CCCCCCCCCC[n+]1c(C)cc(N)c2ccccc21 [DEQUALINIUM CHLORIDE]
FRET ratio [4, 5]: 0.6126

Cc1nccc2c1[nH]c1cc(O)ccc12 [HARMOL HYDROCHLORIDE]
FRET ratio [4]: 0.3867

CC1=CC(=O)c2c(O)cccc2C1=O [PLUMBAGIN]
FRET ratio [4, 5]: 0.9364

Cc1c(-c2cnccn2)ssc1=S [OLTIPRAZ]
FRET ratio [4, 5]: 0.7447

COc1ccc2c(c1)[nH]c1c(C)nccc12 [HARMINE]
FRET ratio [4]: 0.754

CCN(CC)CCNc1ccc(CO)c2sc3ccccc3c(=O)c12 [HYCANTHONE]
FRET ratio [4, 5]: 0.4566

Tri-lysine [Ly-3]
FRET ratio as a function of compound concentration [1]: increase the FRET ratio

CC(/C=C/C(=O)NO)=C\[C@@H](C)C(=O)c1ccc(N(C)C)cc1 [trichostatin A]
FRET ratio in nuclei of treated cells compared to untreated cells [2]: larger FRET ratio

CC(=O)[C@H]1CC[C@H]2[C@@H]3CCC4=CC(=O)CC[C@]4(C)[C@H]3CC[C@]12C [PROGESTERONE]
FRET ratio [4, 5]: 0.9184

CC[C@@H](CO)NC(=O)[C@@H]1C=C2c3cccc4c3c(cn4C)C[C@H]2N(C)C1 [METHYSERGIDE MALEATE]
FRET ratio [4]: 0.8993

CC[C@@]1(O)C[C@H](O)c2c(cc3c(c2O)C(=O)c2c(O)ccc(O)c2C3=O)[C@H]1C(=O)OC [RUTILANTINONE]
FRET ratio [4]: 0.6761

N=C(N)N/N=C/c1c(Cl)cccc1Cl [GUANABENZ ACETATE]
FRET ratio [4, 5]: 0.7731

N.N.[Cl][Pt][Cl] [CISPLATIN]
FRET ratio [4, 5]: 0.6996

N=C(N)c1ccc(-c2ccc(-c3ccc(C(=N)N)cc3)o2)cc1 [Fourmadine]
FRET ratio as a function of compound concentration [1]: concentration-dependent increase of the FRET ratio

CCCCC(CC)COC(=O)C(C#N)=C(c1ccccc1)c1ccccc1 (centres unmarked) [OCTOCRYLENE]
FRET ratio [4, 5]: 0.9187
